Laboratory results published in patent US12486239B2, “Benzotriazole compound, light absorber, and resin composition” (MITSUI CHEMICALS, INC., priority 2019, dated 2025).

Tests used:
Assay type in all cases: physicochemical
[1] = Heat resistance: TG5% decomposition temperature; settings: Table 6; nitrogen atmosphere, heating rate 10° C./min
Protocol: In each Example and Comparative Example, the decomposition temperature was measured by the following method.
Using a thermal analyzer Rigaku ThermoPlus Evo TG8120, the TG5% decomposition temperature (T-5% by mass) was measured under a nitrogen atmosphere at a heating rate of 10° C./min and a temperature range of from room temperature to 500° C.
The higher the T-5% by mass, the higher the heat resistance.
The decomposition temperature of the benzotriazole compound obtained in each Example and Comparative Example was measured by the following method.

[2] = Maximum absorption wavelength and gram absorption coefficient, toluene solution 0.002 g/L (second embodiment); settings: optical path length 10 mm
Protocol: The maximum absorption wavelength of the benzotriazole compound of the second embodiment is measured using a spectrophotometer (for example, Shimadzu Spectrophotometer UV-1600 manufactured by Shimadzu Corporation) at optical path length of 10 mm using a toluene solution having a concentration of 0.002 g/L.
In Examples according to the second embodiment, the maximum absorption wavelength and the gram absorption coefficient of the benzotriazole compound were measured using a Shimadzu Spectrophotometer UV-1600 manufactured by Shimadzu Corporation at an optical path length of 10 mm using a toluene solution having a concentration of 0.002 g/L.

[3] = Solubility to various organic solvents; settings: Table 6, room temperature; for Solubility: EA: ethyl acetate; for Solubility: MEK: methyl ethyl ketone; for Solubility: MMA: methyl methacrylate
Protocol: As Comparative Example 1, the solubility of TINUVIN326 (manufactured by BASF Japan Ltd.) represented by the following Formula (TI) was measured by the following method.
(§1) To 0.5 g of the benzotriazole compound, the various organic solvents shown in Table 1 were added such that the total mass was about 10 g, the mixture was irradiated with ultrasonic waves for about 30 minutes, and thereafter stirred at room temperature for 2 hours to prepare a dispersion of about 10% by mass.
The dispersion was filtered through a membrane filter (0.2 μm), and the obtained residue was dried in a dryer at 60° C. for 1 hour, and then the mass of the residue was measured.
The solubility of the benzotriazole compound to the solvent was expressed by the following formula. Solubility (% by mass)=(W0−W1)/W0
W0 is the mass of the benzotriazole compound before the treatment, and W1 is the mass of the residue after drying (that is, the dissolution residue of the benzotriazole compound). In a case in which no residue remained on the filter, the solubility was determined as 5% by mass or more.
The solubility of the benzotriazole compound obtained in each Example and Comparative Example was measured by the following method.
as §1, with “Table 6” for “Table 1”

| SMILES | Decomposition temperature (Tg-5% by mass) [1] [°C] | gram absorption coefficient [2] [mL/g/cm] | maximum absorption [2] [nm] | Solubility: PGMEA [3] [% by mass] | Solubility: EA [3] [% by mass] | Solubility: MEK [3] [% by mass] | Solubility: MMA [3] [% by mass] | Solubility: Toluene [3] |
| --- | --- | --- | --- | --- | --- | --- | --- | --- |
| Cc1cc(-n2nc3ccc(SCCOCCOCCSc4ccc5nn(-c6cc(C)cc(C(C)(C)C)c6O)nc5c4)cc3n2)c(O)c(C(C)(C)C)c1 [Compound D1] | 331.7 | 59200 | 368.5 | ≤1 | ≤1 | ≤1 | ≤2 | 3≤ % by mass |
| Cc1cc(-n2nc3ccc(SCCOC(=O)c4cc(C(=O)OCCSc5ccc6nn(-c7cc(C)cc(C(C)(C)C)c7O)nc6c5)cc(C(=O)OCCSc5ccc6nn(-c7cc(C)cc(C(C)(C)C)c7O)nc6c5)c4)cc3n2)c(O)c(C(C)(C)C)c1 [Compound D3] | 335.1 | 62000 | 364.5 | ≤1 | ≤1 | ≤0.5 | ≤0.5 | 1.5≤ % by mass |
